In patent US20240271213A1, “METHODS AND COMPOSITIONS COMPRISING FUNCTIONAL GENOMICS OF HIBERNATING MAMMALS” (Fauna Bio Incorporated, priority 2021, published 2024):

Tests used:
SH-SY5Y cells = test: Aβ1-42 induced toxicity in SH-SY5Y cells, viability by MTT; format: cell-based, human; details: Aβ1-42 peptide added, vs vehicle control
Description: Alzheimer's disease progression features the accumulation of two protein aggregates: β-amyloid (Aβ) and tau; these play crucial roles in neuronal loss or dysfunction in Alzheimer's disease. To mimic pathogenesis of Alzheimer's disease, we used in vitro cell models that focus on Aβ-induced toxicity and tau hyperphosphorylation. SH-SY5Y human neuroblastoma cells (American Type Culture Collection; ATCC) were purchased and grown in appropriate culture medium. First, OE/KD and WT SH-SY5Y cells were equally seeded in wells of 96-well plates. Human SH-SY5Y neuroblastoma cells were successfully differentiated into mature neurons by incubating cells in retinoic acid and N2 supplement for 9 days (FIG. 16). These can be distinguished from the original SH-SY5Y cells, which are prone to grow in clusters and extend short neurites at edges of the clusters. […] Aβ-induced toxicity was examined by adding Aβ1-42 peptide to both WT and OE/KD cells. Aβ1-42 induced cell death in WT cells. […] To validate potential neuroprotective compounds identified by the integrated gene networks described above, in vitro assays were conducted with SH-SY5Y cells. Aβ-induced toxicity was examined by adding Aβ1-42 peptide to cells treated with vehicle control or test compounds (FIG. 19). […] Tau hyperphosphorylation was also examined, by exposing the SH-SY5Y cells to hypothermic conditions (30° C.).

AC16 cells [1] = test: Ischemia-reperfusion assay in AC16 cells, cell viability; format: cell-based, human; details: 16 hours ischemia, 4 hours reperfusion, compound added prior to ischemia
Experimental: FIG. 18A is a graph showing in vitro cell viability of AC16 cells following 16 hrs ischemia and 4 hrs reperfusion and incubated with different concentrations of a compound identified for neuroprotection, Triptolide.
(§1) For ischemia-reperfusion assays, de-oxygenated serum free medium was prepared by adding 1% penicillin-streptomycin into glucose-free DMEM; the medium was contacted for 5 mins with 5% CO2 and 95% N2; and the medium was then warmed in a 37° C. bath. Cells were then washed with warm PBS to completely remove normal culture medium. PBS was aspirated and deoxygenated serum free medium was added into plates (100 μl was added for each well of 96-well plate). To mimic myocardial ischemia, cells in the experiment plate were subjected to ischemia by culturing them in glucose and serum free-medium and hypoxic conditions (5% CO2 and 95% N2). Plates were placed in a hypoxia chamber and air-tight lock; the chamber was filled with 5% CO2 and 95% N2 until oxygen level is 0%, and then the chamber was placed in the incubator for a duration of ischemia time. […] Cell viability was determined by MTT assay The control cells were considered to be 100% viable; changes in viability in the experiment plates were measured relative to the control. […]

AC16 cells [2] = test: Ischemia-reperfusion assay in AC16 cells, cell damage (LDH activity); format: cell-based, human; details: 16 hours ischemia, 4 hours reperfusion, compound added prior to ischemia
Experimental: FIG. 18B is a graph showing a decrease in cell damage response (LDH activity) of AC16 cells following 16 hrs ischemia and 4 hrs reperfusion and incubated with different concentrations of Triptolide.
as §1, with “time. The duration of ischemia was 21 hours for H9C2 cells; 29 hours for differentiated SH-SY5Y cells; 16 hours for AC16 cells; and 16 hours for native SH-SY5Y cells.” for “time.”

AC16 cells [3] = test: Reactive oxygen species (ROS) production in AC16 cells; format: cell-based, human; details: AC16 cells following incubation with compound
H9C2 cells = test: Ischemia-reperfusion assay in H9C2 cells, viability by MTT; format: cell-based, rat; details: melatonin added at start of ischemia, control wells ~75% viable, normoxic control = 100%
Experimental: FIG. 17 is a graph illustrating results of an in vitro validation assay for ischemia-reperfusion injury in H9C2 cells. H9C2 cells were exposed to ischemia for […] and reperfusion for 4 hrs were contacted with differing concentrations of melatonin at the start of ischemia. Viability was measured using the MTT assay. Data are expressed as the mean +/− standard deviation in experiments performed in triplicate. * p<0.05 and ** […] compared to vehicle control.
as §1, with “N2).” for “N2). Plates were placed in a hypoxia chamber and air-tight lock; the chamber was filled with 5% CO2 and 95% N2 until oxygen level is 0%, and then the chamber was placed in the incubator for a duration of ischemia time.”

## CC12CC3CC(C)(C1)CC(N)(C3)C2 [Memantine]
SH-SY5Y cells
  cell viability under Aβ1-42 toxicity (MTT): increase in cell viability

## CC(C)[C@]12O[C@H]1[C@@H]1O[C@]13[C@]1(O[C@H]1C[C@H]1C4=C(CC[C@@]13C)C(=O)OC4)[C@@H]2O [Triptolide]
AC16 cells [1]
  cell viability after ischemia-reperfusion: increased cell viability
AC16 cells [2]
  cell damage (LDH activity) after ischemia-reperfusion: reduced cell damage
AC16 cells [3]
  production of reactive oxygen species (ROS): decrease production of reactive oxygen species (ROS)

## COc1ccc2[nH]cc(CCNC(C)=O)c2c1 [melatonin]
H9C2 cells
  viable cells after ischemia-reperfusion (MTT): ~90%
